Experimental data published in US6967237B2, “Ghrelin analogs” (priority 2000, dated 2005).
Where two headings read alike, the source gives them in different places. Where a SMILES comes first, the peptide text is derived from it. Where no end group is shown, it is not given here. [ ]: non-standard residue; d: D form. The star is where a group is joined. Octanoyl = CCCCCCCC(=O)*

Experiments:
human GHSR1a = human GHSR1a (Homo sapiens, UniProt Q92847); assay: Aequorin bioluminescence functional assay (intracellular calcium mobilization) in 293AEQ17/GHSR1a cells; assay type: cell-based; conditions: for activation at 10 µM: read-out: Functional Assay % activation at 10 μM relative to ghrelin; for EC50: aequorin bioluminescence, HEK-293 cells expressing hGHSR1a, three separate assays
Method: A stable cell line expressing the human GHSR1a and the aequorin reporter protein were used for the assay.
The assay was performed using a Luminoskan RT luminometer (Labsystems Inc., Gaithersburg, Md.) controlled by custom software written for a Macintosh PowerPC 6100. […] The cells were harvested, washed once in ECB medium and resuspended to 500,000 cells/ml. 100 ml of cell suspension (corresponding to 5×10^4 cells) was then injected into the test plate containing the peptides, and the integrated light emission was recorded over 30 seconds, in 0.5 second units. 20 μL of lysis buffer (0.1% final Triton X-100 concentration) was then injected and the integrated light emission recorded over 10 seconds, in 0.5 second units. The “fractional response” values for each well were calculated by taking the ratio of the integrated response to the initial challenge to the total integrated luminescence including the Triton X-100 lysis response. The functional EC50 values were measured in three separate assays.

human GHS receptor 1a = human GHS receptor 1a (Homo sapiens, UniProt Q92847); assay: Competitive binding assay with [35S]-MK-677 on membranes of HEK 293-aequorin cells transfected with human GHS receptor; conditions: competition with 0.05 nM [35S]-MK-677; three separate assays in triplicate
Method: Prior to the binding assay, the HEK 293-AEQ17 cells (8×10^5 cells plated 18 hours before transfection in a T75 flask) were transfected with 22 μg of human GHS receptor plasmid using 264 μg lipofectamine. The open reading frame cDNA (SEQ. ID. NO. 22) encoding the human GHS receptor inserted in the mammalian expression vector pcDNA-3 (Invitrogen, Carlsbad, Calif.) was used for binding and expression studies.
For a 96-well filter binding assay, 0.05 nM [^35S]-NM-677 (specific activity ˜1200 Ci/mmol) was bound to 4 μg membrane protein per well with or without competing test ligand. The bound membranes were filtered on 0.5% polyethylenimine prewet filters (UniFilter 96 GF/C; Packard #6005174, Meriden, Conn.). Filters were washed 8 times, dried, and counted with Microscint 20 (Packard #6013621, Meriden, Conn.). IC50 values were determined from three separate assays performed in triplicate.

somatotrops = conditions: several species including man; cited from earlier work

human GHSR1a, sequence (Q92847 whole entry): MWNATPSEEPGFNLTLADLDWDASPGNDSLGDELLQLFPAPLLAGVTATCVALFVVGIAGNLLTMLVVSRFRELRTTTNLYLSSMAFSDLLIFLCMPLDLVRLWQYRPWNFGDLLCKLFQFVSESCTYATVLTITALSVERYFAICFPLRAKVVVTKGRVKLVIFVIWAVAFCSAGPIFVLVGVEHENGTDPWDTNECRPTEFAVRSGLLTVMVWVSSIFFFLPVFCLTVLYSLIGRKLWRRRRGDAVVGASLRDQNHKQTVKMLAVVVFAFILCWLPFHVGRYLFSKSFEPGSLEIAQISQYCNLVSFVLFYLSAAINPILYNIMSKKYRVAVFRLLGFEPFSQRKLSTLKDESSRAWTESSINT
human GHS receptor 1a, sequence (Q92847 whole entry): as above

| Molecule | activation at 10 µM (human GHSR1a; at 10 μM, relative to ghrelin) [%] | other results |
| --- | --- | --- |
| CCCCCCCC(=O)NC[C@H](NC(=O)[C@H](CO)NC(=O)CN)C(=O)N[C@@H](Cc1ccccc1)C(=O)N[C@@H](CC(C)C)C(=O)N[C@@H](CO)C(=O)N1CCC[C@H]1C(=O)N[C@@H](CCC(=O)O)C(=O)N[C@@H](Cc1c[nH]cn1)C(=O)N[C@@H](CCC(N)=O)C(=O)N[C@@H](CCCNC(=N)N)C(=O)N[C@H](C(=O)N[C@@H](CCC(N)=O)C(=O)N[C@@H](CCC(N)=O)C(=O)N[C@@H](CCCNC(=N)N)C(=O)N[C@@H](CCCCN)C(=O)N[C@@H](CCC(=O)O)C(=O)N[C@@H](CO)C(=O)N[C@@H](CCCCN)C(=O)N[C@@H](CCCCN)C(=O)N1CCC[C@H]1C(=O)N1CCC[C@H]1C(=O)N[C@@H](C)C(=O)N[C@@H](CCCCN)C(=O)N[C@@H](CC(C)C)C(=O)N[C@@H](CCC(N)=O)C(=O)N1CCC[C@H]1C(=O)N[C@@H](CCCNC(=N)N)C(=O)O)C(C)C [Compound 12] | 105 ± 5 | – |
| CCCCCCCC(=O)OC[C@H](NC(=O)[C@H](CO)NC(=O)CN)C(=O)N[C@@H](Cc1ccccc1)C(=O)N[C@@H](CC(C)C)C(=O)N[C@@H](CO)C(=O)N1CCC[C@H]1C(=O)N[C@@H](CCC(=O)O)C(=O)N[C@@H](Cc1c[nH]cn1)C(=O)N[C@@H](CCC(N)=O)C(=O)N[C@@H](CCCNC(=N)N)C(=O)N[C@H](C(=O)N[C@@H](CCC(N)=O)C(=O)N[C@@H](CCC(N)=O)C(N)=O)C(C)C [Compound 13, GSXFLSPEHQRVQQ] | 97 ± 9 | – |
| CCCCCCCC(=O)NC[C@H](NC(=O)[C@H](CO)NC(=O)CN)C(=O)N[C@@H](Cc1ccccc1)C(=O)N[C@@H](CC(C)C)C(=O)N[C@@H](CO)C(=O)N1CCC[C@H]1C(=O)N[C@@H](CCC(=O)O)C(=O)N[C@@H](Cc1c[nH]cn1)C(=O)N[C@@H](CCC(N)=O)C(=O)N[C@@H](CCCNC(=N)N)C(=O)N[C@H](C(=O)N[C@@H](CCC(N)=O)C(=O)N[C@@H](CCC(N)=O)C(=O)O)C(C)C [Compound 14] | 102 ± 3 | – |
| CCCCCCCC(=O)OC[C@H](NC(=O)[C@H](CO)NC(=O)CN)C(=O)N[C@@H](Cc1ccccc1)C(=O)N[C@@H](CC(C)C)C(=O)N[C@@H](CO)C(=O)N1CCC[C@H]1C(=O)N[C@@H](CCC(=O)O)C(=O)N[C@@H](Cc1c[nH]cn1)C(=O)N[C@@H](CCC(N)=O)C(=O)N[C@@H](CCCNC(=N)N)C(=O)N[C@H](C(=O)N[C@@H](CCC(N)=O)C(=O)N[C@@H](CCC(N)=O)C(=O)N[C@@H](CCCNC(=N)N)C(=O)N[C@@H](CCCCN)C(=O)N[C@@H](CCC(=O)O)C(=O)N[C@@H](CO)C(=O)N[C@@H](CCCCN)C(=O)N[C@@H](CCCCN)C(=O)N1CCC[C@H]1C(=O)N1CCC[C@H]1C(=O)N[C@@H](C)C(N)=O)C(C)C [Compound 18, GSXFLSPEHQRVQQRKESKKPPA-NH2] (H-GSS(Octanoyl)FLSPEHQRVQQRKESKKPPA-NH2) | 100 ± 4 | – |
| CCCCCCCC(=O)OC[C@H](NC(=O)[C@H](CO)NC(=O)CN)C(=O)N[C@@H](Cc1ccccc1)C(=O)N[C@@H](CC(C)C)C(=O)N[C@@H](CO)C(=O)N1CCC[C@H]1C(=O)N[C@@H](CCC(=O)O)C(=O)N[C@@H](Cc1c[nH]cn1)C(=O)N[C@@H](CCC(N)=O)C(=O)N[C@@H](CCCNC(=N)N)C(=O)N[C@H](C(=O)N[C@@H](CCC(N)=O)C(=O)N[C@@H](CCC(N)=O)C(=O)N[C@@H](CCCNC(=N)N)C(=O)N[C@@H](CCCCN)C(=O)N[C@@H](CCC(=O)O)C(=O)N[C@@H](CO)C(N)=O)C(C)C [Compound 19, GSXFLSPEHQRVQQRKES-NH2] (H-GSS(Octanoyl)FLSPEHQRVQQRKES-NH2; N-terminus assumed) | 92 ± 16 | – |
| CCCCCCCC(=O)OC[C@H](NC(=O)[C@H](CO)NC(=O)CN)C(=O)N[C@@H](Cc1ccccc1)C(=O)N[C@@H](CC(C)C)C(N)=O [Compound 21, GSXFL-NH2] (H-GSS(Octanoyl)FL-NH2) | 96 ± 7 | – |
| CCCCCCCC(=O)OC[C@H](NC(=O)[C@H](CO)NC(=O)CN)C(=O)N[C@@H](Cc1ccccc1)C(N)=O [Compound 22, GSXF-NH2] (H-GSS(Octanoyl)F-NH2) | 91 ± 4 | EC50 (human GHSR1a): 72 ± 29 nM; IC50 (human GHS receptor 1a): 889 ± 72 nM |
| CCCCCCCC(=O)OC[C@H](NC(=O)[C@H](CO)NC(C)=O)C(=O)N[C@@H](Cc1ccccc1)C(=O)N[C@@H](CC(C)C)C(N)=O [Compound 23, Ac-SXFL-NH2] (Ac-SS(Octanoyl)FL-NH2) | 30 ± 5 | EC50 (human GHSR1a): 1150 ± 120 nM |
| CCCCCCCC(=O)OC[C@H](NC(=O)[C@H](CO)NC(=O)CN)C(N)=O [Compound 24, GSX-NH2] (H-Gly-Ser-Ser(Octanoyl)-NH2) | – | activation at 10 µM (human GHSR1a): 28 ± 1% |
| CCCCCCCC(=O)OC[C@H](NC(C)=O)C(=O)N[C@@H](Cc1ccccc1)C(=O)N[C@@H](CC(C)C)C(N)=O [Compound 25, Ac-XFL-NH2] (Ac-Ser(Octanoyl)-Phe-Leu-NH2) | – | EC50 (human GHSR1a): 2500 ± 1200 nM; activation at 10 µM (human GHSR1a): 29 ± 7% |
| CCCCCCCC(=O)OC[C@H](NC(=O)[C@H](CO)NC(C)=O)C(=O)N[C@@H](Cc1ccccc1)C(N)=O [Compound 26, Ac-SXF-NH2] (Ac-Ser-Ser(Octanoyl)-Phe-NH2) | 28 ± 1 | – |
| H[dW]AW[dF]K-NH2 [GHRP-6] | – | growth hormone release from somatotrops, result in words (somatotrops): release growth hormone from somatotrops in a dose-dependent manner |
